This is an account of results in ChEMBL document CHEMBL1201862, “PubChem BioAssay data set” (2004).

Some test systems named below: IGROV-1; HOP-92; HCT-116; KM12; OVCAR-8; COLO 205; SF-295; NCI-H522; Malme-3M; SNB-19; Hs-578T; ACHN; CAKI-1; NCI-H226; UO-31; DU-145; NCI-H23; UACC-62; OVCAR-4; OVCAR-5.
Assay in all cases: DTP human tumour cell line panel, 48 h

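Protocol summary: plate cells (96-well), add compound at 5 concentrations, incubate 48 h, interpolate endpoints linearly. GI50 = concentration required for 50% inhibition of growth.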 The source made the active and inactive calls. Cut-off read from the data, not from the text of the source: active = GI50 up to about 1.1 µM and inactive = higher. A value given as a limit tells only on which side of the number the result lay.

On to `CC(C)=CCC1=C(OCC(=O)O)C(=O)c2ccccc2C1=O`, for which the GI50 with IGROV-1 is 39.1 µM (inactive); with HOP-92 it was 47.4 µM (inactive); in the experiment with HCT-116, 22.6 µM (inactive); with KM12, 25.2 µM (inactive); in the experiment on OVCAR-8 it was 38.5 µM (inactive); with COLO 205, 60.3 µM (inactive). The GI50 was 11.9 µM (inactive) in the experiment with SF-295; 23.6 µM (inactive) in the experiment with NCI-H522; 19.3 µM (inactive) with Malme-3M; 27.9 µM (inactive) in the experiment with SNB-19; 22.2 µM (inactive) with Hs-578T; 39.4 µM (inactive) in the experiment with ACHN. Also, the GI50 is 52.5 µM (inactive) in the experiment with CAKI-1; 32.4 µM (inactive) in the experiment with NCI-H226; 28 µM (inactive) with UO-31; 33.5 µM (inactive) in the experiment with DU-145; 33 µM (inactive) in the experiment with NCI-H23; 19 µM (inactive) in the experiment on UACC-62. Also, the GI50 with OVCAR-4 is 31.9 µM (inactive).

`N=C(Nc1nc(-c2ccccn2)cc2ccccc12)c1ccccn1`: the GI50 in the experiment on IGROV-1 is 0.0322 µM (active); with HOP-92, 0.0233 µM (active); with HCT-116, 0.01 µM (active); in the experiment with KM12, 0.049 µM (active); in the experiment on OVCAR-8 it was < 0.0179 µM (active); in the experiment with COLO 205, 0.011 µM (active). Also, the GI50 was 0.326 µM (active) in the experiment on SF-295; 0.0398 µM (active) in the experiment with NCI-H522; 0.157 µM (active) with Malme-3M; 0.834 µM (active) in the experiment with SNB-19; 1.61 µM (inactive) in the experiment with Hs-578T; 0.0148 µM (active) with OVCAR-5. Besides, the GI50 in the experiment on ACHN is < 0.0145 µM (active); in the experiment with CAKI-1, < 0.0123 µM (active); in the experiment on NCI-H226, 0.106 µM (active); in the experiment with UO-31, 0.0918 µM (active); in the experiment on DU-145, 0.0673 µM (active); in the experiment on NCI-H23, 0.0156 µM (active). Further, the GI50 was 0.0336 µM (active) with UACC-62 and < 0.0561 µM (active) with OVCAR-4.

As for `Clc1ccc2oc(CCC3CCCCC3)nc2c1`, the GI50 in the experiment with HOP-92 was 35.2 µM (inactive); in the experiment with HCT-116, 31.4 µM (inactive); in the experiment on KM12, 26.4 µM (inactive); in the experiment on OVCAR-8, 44.1 µM (inactive); in the experiment with COLO 205, 21.4 µM (inactive); in the experiment with SF-295 it was 22 µM (inactive). Further, the GI50 with NCI-H522 is 21.9 µM (inactive); with Malme-3M, 39.5 µM (inactive); in the experiment on SNB-19, 42.3 µM (inactive); with Hs-578T, 91.2 µM (inactive); in the experiment on OVCAR-5, 33.3 µM (inactive); in the experiment with ACHN, 40.6 µM (inactive). The GI50 in the experiment with CAKI-1 was 24.7 µM (inactive); in the experiment on NCI-H226 it was 19.2 µM (inactive); with UO-31, 17.9 µM (inactive); in the experiment with DU-145, 34.3 µM (inactive); in the experiment on NCI-H23, 29.9 µM (inactive); in the experiment on UACC-62, 60.4 µM (inactive). Moreover, the GI50 in the experiment with OVCAR-4 was 27.4 µM (inactive).

As for `O=[N+]([O-])c1ccc(-c2nc3cc(Cl)ccc3[nH]2)cc1`, the GI50 is 81.3 µM (inactive) in the experiment with IGROV-1; 46.7 µM (inactive) with HOP-92; 49.2 µM (inactive) in the experiment on HCT-116; 59.6 µM (inactive) with OVCAR-8; 32.9 µM (inactive) in the experiment on COLO 205; 39.2 µM (inactive) in the experiment with SF-295. For the same molecule, the GI50 was 14.4 µM (inactive) in the experiment with NCI-H522; > 100 µM (inactive) in the experiment with Malme-3M; 78.5 µM (inactive) in the experiment on SNB-19; > 100 µM (inactive) in the experiment with Hs-578T; 50.1 µM (inactive) in the experiment with ACHN; 62.7 µM (inactive) in the experiment with CAKI-1. Besides, the GI50 was 82.6 µM (inactive) with NCI-H226; 26.1 µM (inactive) in the experiment with UO-31; 72.1 µM (inactive) with DU-145; 42.5 µM (inactive) in the experiment with NCI-H23; 81.1 µM (inactive) in the experiment on UACC-62; 95.5 µM (inactive) in the experiment on OVCAR-4.

Turning to `Cn1c2c(c3ccccc31)CCN=C2C1CCCOC1=O` (stereo not drawn), the GI50 in the experiment on IGROV-1 is > 100 µM (inactive); with HOP-92 it was 45.4 µM (inactive); in the experiment with HCT-116, > 100 µM (inactive); with KM12 it was > 100 µM (inactive); in the experiment with OVCAR-8, > 100 µM (inactive); with COLO 205 it was > 100 µM (inactive). Further, the GI50 in the experiment on NCI-H522 was > 100 µM (inactive); in the experiment on Malme-3M, > 100 µM (inactive); in the experiment on SNB-19, > 100 µM (inactive); in the experiment with Hs-578T, 32.6 µM (inactive); in the experiment with OVCAR-5, > 100 µM (inactive); in the experiment with ACHN, > 100 µM (inactive). Also, the GI50 is > 100 µM (inactive) with CAKI-1; 11.7 µM (inactive) with NCI-H226; 43.5 µM (inactive) in the experiment on UO-31; > 100 µM (inactive) with DU-145; > 100 µM (inactive) with UACC-62; > 100 µM (inactive) in the experiment with OVCAR-4.

As for `Cc1n[nH]c(=O)n1-c1cccnc1`, the GI50 in the experiment with IGROV-1, in the experiment with HOP-92, in the experiment on HCT-116, in the experiment on KM12, in the experiment on OVCAR-8 and in the experiment on COLO 205 was > 100 µM (inactive) throughout. Moreover, the GI50 in the experiment on SF-295, with NCI-H522, in the experiment with Malme-3M, with SNB-19, in the experiment on Hs-578T and in the experiment on OVCAR-5 was > 100 µM (inactive) each time. Also, the GI50 with ACHN, in the experiment with CAKI-1, with NCI-H226, in the experiment with UO-31, in the experiment on DU-145 and with NCI-H23 was > 100 µM (inactive) throughout. Also, in the experiment with OVCAR-4, the GI50 is > 100 µM (inactive).

In the case of `C[C@@H]1Nc2cc(NC(=O)OCCF)nc(N)c2N=C1c1ccccc1`, the GI50 in the experiment with IGROV-1 was < 0.0001 µM (active); with HOP-92 it was > 100 µM (inactive); with HCT-116, < 0.0001 µM (active); in the experiment on KM12, < 0.0001 µM (active); in the experiment on OVCAR-8, < 0.0001 µM (active); with COLO 205 it was < 0.0001 µM (active). In addition, the GI50 in the experiment with SF-295 was < 0.0001 µM (active); with NCI-H522, < 0.0001 µM (active); with Malme-3M, 0.111 µM (active); in the experiment on SNB-19, 0.0409 µM (active); in the experiment on Hs-578T, < 0.0001 µM (active); with OVCAR-5, < 0.0001 µM (active). Further, the GI50 in the experiment with ACHN is 24.8 µM (inactive); with CAKI-1, > 100 µM (inactive); in the experiment with NCI-H226, 42.2 µM (inactive); in the experiment on UO-31, 21.5 µM (inactive); in the experiment with DU-145, < 0.0001 µM (active); with NCI-H23, < 0.0001 µM (active). Further, the GI50 in the experiment with UACC-62 is 34.8 µM (inactive).

In the case of `COc1nc2ncc([C@@H](OC(C)=O)[C@@H](COC(C)=O)OC(C)=O)nc2c(=O)n1C`, the GI50 in the experiment on IGROV-1, in the experiment with HOP-92, with HCT-116, in the experiment with KM12, with OVCAR-8 and in the experiment with COLO 205 was > 100 µM (inactive) each time. In addition, the GI50 was > 100 µM (inactive) in the experiment on SF-295; 57.5 µM (inactive) in the experiment with NCI-H522; > 100 µM (inactive) in the experiment on Malme-3M; > 100 µM (inactive) in the experiment with SNB-19; > 100 µM (inactive) with Hs-578T; > 100 µM (inactive) in the experiment on OVCAR-5. The GI50 in the experiment with ACHN, in the experiment on CAKI-1, in the experiment on NCI-H226, in the experiment on UO-31, in the experiment with DU-145 and in the experiment with UACC-62 was > 100 µM (inactive) in each case. For the same molecule, the GI50 in the experiment on OVCAR-4 is 48 µM (inactive).

On to `Cc1cc(NS(=O)(=O)c2ccc(/N=[N+](\[O-])c3ccc(S(=O)(=O)Nc4cc(C)on4)cc3)cc2)no1`, for which the GI50 in the experiment on IGROV-1, with HOP-92, in the experiment with HCT-116, in the experiment with OVCAR-8, with COLO 205 and in the experiment with SF-295 was > 100 µM (inactive) in each case. In addition, the GI50 in the experiment with NCI-H522, in the experiment on Malme-3M, in the experiment with SNB-19, in the experiment on Hs-578T, in the experiment with OVCAR-5 and in the experiment with ACHN was > 100 µM (inactive) each time. The GI50 in the experiment on CAKI-1, in the experiment with NCI-H226, in the experiment on UO-31, with DU-145, in the experiment on NCI-H23 and with UACC-62 was > 100 µM (inactive) in each case. For the same molecule, in the experiment with OVCAR-4, the GI50 is > 100 µM (inactive).

For `NNC1=N/C(=C\c2ccccc2O)C(=O)N1`, the GI50 in the experiment on IGROV-1 was 36.2 µM (inactive); in the experiment with HOP-92, > 100 µM (inactive); in the experiment on HCT-116, 34.4 µM (inactive); in the experiment with KM12, 35.5 µM (inactive); with OVCAR-8, 27.6 µM (inactive); with COLO 205, 29.6 µM (inactive). Also, the GI50 was 36 µM (inactive) with SF-295; 35.3 µM (inactive) with NCI-H522; 43.9 µM (inactive) in the experiment with Malme-3M; 73.3 µM (inactive) in the experiment on SNB-19; > 100 µM (inactive) with Hs-578T; 65.3 µM (inactive) in the experiment with OVCAR-5. The GI50 is 30.9 µM (inactive) in the experiment on ACHN; 60.3 µM (inactive) with CAKI-1; 47.5 µM (inactive) with NCI-H226; 16.6 µM (inactive) in the experiment with UO-31; 34.9 µM (inactive) with DU-145; 53.6 µM (inactive) in the experiment with NCI-H23. The GI50 with UACC-62 is 48.1 µM (inactive).

Turning to `CC(=O)Oc1cccc2c1C(=O)c1c(OC(C)=O)cc(C)cc1C2=O`, the GI50 in the experiment on IGROV-1 is 25.7 µM (inactive); in the experiment on HOP-92, 70.6 µM (inactive); in the experiment on HCT-116 it was 33.6 µM (inactive); with KM12, 39.5 µM (inactive); with OVCAR-8 it was 39.8 µM (inactive); in the experiment with COLO 205, 58.2 µM (inactive). Besides, the GI50 in the experiment on SF-295 was 29.1 µM (inactive); in the experiment on NCI-H522, 12.2 µM (inactive); with Malme-3M it was 17.1 µM (inactive); with SNB-19, 30.3 µM (inactive); in the experiment on Hs-578T, 46.6 µM (inactive); in the experiment with OVCAR-5, > 100 µM (inactive). The GI50 is 78.3 µM (inactive) in the experiment with ACHN; > 100 µM (inactive) in the experiment with CAKI-1; > 100 µM (inactive) in the experiment on NCI-H226; 56.6 µM (inactive) in the experiment on DU-145; 50.9 µM (inactive) with NCI-H23; 32.7 µM (inactive) in the experiment with UACC-62. Further, the GI50 in the experiment on OVCAR-4 was 27.7 µM (inactive).

Broadly, the GI50 is the concentration that inhibits growth by half.
